Key:
U-251 cells [1] = experiment: Nitric oxide production assay, U-251 cells; assay type: cell-based, human; settings: 50 μM (mixture 50 μM + 50 μM), 1 hour treatment
Experimental: U251 cells (5×10^4) were seeded in 24 well plates, and after 24 hours washed and resuspended in PBS. […] Fluorescence was measured with excitation/emission filters of 390/440 nm in a FluoStar fluorimeter. The concentration of nitrate was determined by subtracting the nitrite concentration from the total concentration of nitrite+nitrate.

U-251 cells [2] = experiment: Cell cycle analysis (propidium iodide flow cytometry), U-251 cells; assay type: cell-based, human
Experimental: Cells (4×10^5) were seeded in 35 mm culture dishes and after 24 hours were starved in medium without serum for an additional 24 hours, and then treated with the drug for an additional 24 hours. The cells were then trypsinized to a single cell suspension in PBS, washed, and resuspended in PBS at a concentration of 10^6 cells/mL. The cells were fixed with 70% ethanol for 30 minutes at 4° C., centrifuged and resuspended in 1 ml PBS containing 0.1% Tween 20 and 0.05% bovine serum albumin (BSA). RNase free of DNase was added, and the cell suspension (10^6 cells) was incubated at […] for 30 minutes. The cell suspension was then chilled on ice to a temperature in the range of 2 to 8° C. Propidium iodide (50 μg/mL) was added to the cell suspension, which was than kept in the dark. Red fluorescence (>630 nm) was analyzed on the flow cytometer.

U-251 cells [3] = experiment: Hoechst viability assay, U-251 glioma cells; assay type: cell-based, human
Experimental: (§1) Cells (in quadruplicate) at the specified density were suspended in 200 μL medium supplemented with 10% FCS seeded in 96-well plates for 24 hours, then exposed to the drugs for 72 hours. The viability of the cells was determined by Hoechst fluorescent assay as described by Nudelman et al., 2005. Leukemic cell viability after 72 hours of treatment was determined by an MTT (3-(4,5-dimethylthiazol-2-yl)-2,5-diphenyltetrazolium bromide) assay as described by Levovich et al., 2007.
(§2) IC50 values were determined by linear regression of the percentage of survival following drug titration.

U-251 cells [4] = experiment: Mitochondrial membrane potential (JC-1 staining), U-251 cells; assay type: cell-based, human; settings: 60 μM, 24 hour treatment
U-251 cells [5] = experiment: Apoptosis/cell death by annexin V-FITC and propidium iodide FACS, U-251 cells; assay type: cell-based
Experimental: Cells were seeded in six-well plates (10^5 cells/well) for 24 hours and were then treated as specified, trypsinized, washed with PBS, double-stained with annexin V-FITC (fluorescein isothiocyanate) and propidium iodide, according to the manufacturer's instructions and subjected to flow cytometry analysis (FACScalibur cytometer, Becton Dickinson).

HL-60 cells = experiment: MTT viability assay, HL-60 leukemic cells; assay type: cell-based, human
Experimental: as §1, §2

[6] = test system: kinases which phosphorylate acyclovir; experiment: Acyclovir phosphorylation (viral thymidine kinase activity) in 4T1 cell extracts; assay type: cell-based, murine; settings: 4T1 cells, 24 hours, 40 μM
Experimental: The mammalian thymidine kinase (TK) has a narrow specificity and acts only on thymidine. […] The lysates obtained were kept at −70 ° C. until analyzed either spectroscopically or by RT-PCR. […] The ADP is converted to ATP by pyruvate kinase when it hydrolyzes phosphoenolpyruvate (PEP) to pyruvate. Lactate dehydrogenase then converts pyruvate to lactate and NADH to NAD^+. The decrease in fluorescence emitted by NADH (excitation/emission of 320/460 nm) during 10 cycles, each lasting 1 minute, were monitored using a FluoStar fluorometer. The reaction velocity was determined by the slope of the fluorescence vs. time.

proteasome = target: T1, proteasome (Homo sapiens, UniProt P28074); experiment: Proteasome activity assay, U-251 cells; assay type: cell-based; settings: U-251, 50 μM
T1 construct: proteasome activity in U-251 cells treated for 4 or 24 hours; endogenous in cells; host or cells: U-251 cells (lysates of treated cells)
T1 sequence (P28074 60-263): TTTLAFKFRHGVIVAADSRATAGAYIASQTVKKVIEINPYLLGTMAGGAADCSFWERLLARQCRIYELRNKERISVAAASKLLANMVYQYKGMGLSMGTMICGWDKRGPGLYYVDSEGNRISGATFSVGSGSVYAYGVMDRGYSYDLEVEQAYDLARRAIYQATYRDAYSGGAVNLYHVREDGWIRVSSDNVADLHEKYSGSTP
Experimental: The peptidase or chymotrypsin-like activity of the proteasome was assayed using N-succinyl-Leu-Leu-Val-Tyr-7-amido-4-methylcoumarin. The lysates (100 μL) were incubated with 13 (M of the substrate in 100 mM Tris, pH 7.5, for 1 hour with shaking at room temperature. The reaction was stopped by addition of ice-cold ethanol, and the samples were centrifuged for 5 minutes at 2500 g. The supernatants were collected and the fluorescence was measured with excitation/emission filters of 390/460 nm using the FluoStar fluorimeter. The protein concentration was determined using a BCATM kit (Pierce) and the proteasome activity was derived from the ratio of fluorescence at 460 nm/(g of protein. The percentage of proteasome activity was calculated relative to untreated cells.

phospho-H2AX (Ser139) = experiment: Phospho-H2AX Western blot, U-251 cells; assay type: cell-based, human; settings: 60 μM, 0.5, 2 or 24 hours, peak after 2 hours
Experimental: Cell lysates or acid extracted histones were solubilized in a concentrated (×4) loading buffer (62.5 mM Tris-HCl, pH 6.8, 1% SDS, 10% glycerol v/v, 1% dithiothreitol (DTT) and 0.1 mg/ml bromophenol blue). Proteins (10-40 μg) were run on SDS-PAGE, transferred to a nitrocellulose membrane (Schleicher & Schuell, Germany) and probed with the primary antibodies, followed by incubation with a horseradish peroxidase (HRP)-goat anti-rabbit IgG or HRP-rabbit anti-mouse IgG as secondary antibodies. HRP bound to the secondary antibodies was visualized by the enhanced chemiluminescence method using the Western Blotting Luminol reagent (Santa Cruz, Calif., USA). The membrane was exposed for 5 minutes to Chemiluminescence BioMax light film (Kodak, USA) and the intensity of the bands was measured with a VersaDoc instrument with a Quantityl program (Bio-Rad, USA). The fold increase of each specific protein was determined by the ratio of band intensities of treated and untreated cells, normalized to loading control (actin or total histone H3).

[7] = test system: rat primary cardiomyocytes; experiment: ROS production (DCF-DA) in rat primary cardiomyocytes; assay type: cell-based
Experimental: Neonatal rat ventricular cardiomyocytes were isolated and cultured in collagen coated culture dishes as described by Shalitin et al., 1996. Growth medium contained DMEM:Ham's F12 (1:1), fetal calf serum (10%) and antibiotics. Treatment was administered to spontaneously beating cardiomyocytes 48 hours after plating.

MCF-7 cells = experiment: Hoechst viability assay, MCF-7 breast carcinoma cells; assay type: cell-based, human
Experimental: as §1, §2

## CCCC(CCC)C(=O)Nc1nc2c(ncn2COCCOC(=O)C(CCC)CCC)c(=O)[nH]1 [Compound 6, N-valproyl-9-(2-valproyloxy)ethoxymethylguanine]
U-251 cells [1]
  NO production: increased NO production in U-251 cells considerably
U-251 cells [2]; 25 μM, 24 hours
  Percentage of cells in G0-G1 stage: 48.5%
  Percentage of cells in G2-M stage: 33.9%
  Percentage of cells in S stage: 17.5%
U-251 cells [2]; 50 μM, 24 hours
  Percentage of cells in G0-G1 stage: 77.1%
  Percentage of cells in G2-M stage: 13.3%
  Percentage of cells in S stage: 9.5%
U-251 cells [2]; 25-50 μM vs 1 mM
  cell-cycle arresting concentration, fold lower than acyclovir and valproic acid: at least 20 fold
U-251 cells [2]; 25-50 μM, 24 hours
  phase of cell-cycle arrest: G0-G1 phase
U-251 cells [3]
  activity relative to acyclovir: > 100 fold
U-251 cells [3]; Homo sapiens, 72 hours, Hoechst, read-out: IC50
  IC50: 32 ± 2 µM
U-251 cells [4]
  mitochondrial membrane potential: increased the number of mitochondria with reduced membrane potentials
U-251 cells [5]; Homo sapiens, U-251 glioblastoma cells, 50 μM, 24 hours (untreated 9%)
  mortality at 50 µM: 29%
U-251 cells [5]; U-251 cells, 24 hours
  percentage of apoptotic cells: increased the percentage of apoptotic cells in a dose dependent manner
HL-60 cells
  IC50 fold lower than that of VA: over 20 fold
HL-60 cells; acyclovir:VA 1:2
  IC50 fold lower than that of the mixture of VA and acyclovir: over 50 fold
[6]
  rate of acyclovir phosphorylation (kinase activity): increased the rate of acyclovir phosphorylation in a significant and reproducible manner
proteasome; after 4 hours
  inhibition at 50 µM: > 50%
proteasome; after 24 hours
  inhibition at 50 µM: > 75%
phospho-H2AX (Ser139)
  level of phosphorylated H2AX: induced an increase in the level of phosphorylated H2AX
[7]; 4 hours
  production of reactive oxygen radicals (ROS): did not increase production of reactive oxygen radicals
[7]; combined with 2 μM Dox
  effect on ROS production induced by Dox: prevented the formation of ROS
MCF-7 cells; 400 μM NAC, FIG. 3b
  effect of N-acetylcysteine (NAC) on the activity of the compound: did not reduce the activity
MCF-7 cells; MCF-7 cells, Hoechst
  IC50 fold lower than that of VA: over 20 fold
MCF-7 cells; MCF-7 cells, Hoechst, acyclovir:VA 1:2
  IC50 fold lower than that of the mixture of VA and acyclovir: over 50 fold

— patent US9334272B2, “Derivatives of purinic and pyrimidinic antiviral agents and use thereof as potent anticancer agents” (Ramot at Tel-Aviv University Ltd., priority 2007, dated 2016)
